Experimental findings from ChEMBL document CHEMBL1201862, “PubChem BioAssay data set” (2004) are described below.

Some test systems named below: EKVX; HCC 2998; HL-60; HOP-62; HT-29; KM12; MDA-MB-435; MDA-N; MOLT-4; OVCAR-4; PC-3; SK-MEL-5; SNB-19; A549; ACHN; M14; NCI-H460; NCI-H522; UO-31; MCF7.
Experiment in all cases: inhibition of tumour cell growth, NCI panel, 48 h

Each structure is given as a SMILES string.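 Grown in 96-well plates, cells were treated for 48 hours with each compound at five concentrations. Insufficient inhibition: endpoint recorded as highest concentration tested. Abbreviation: GI50, concentration required for 50% inhibition of growth.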 Calls of active or inactive are those of the source. Rule as the data show it: active = GI50 up to about 1.1 µM and inactive = higher. A value given as a limit tells only on which side of the number the result lay.

As for `CN(C)CCNc1ccc(NCC[N+](C)(C)Cc2ccc([N+](=O)[O-])cc2)c2c1C(=O)c1c(O)ccc(O)c1C2=O`, the GI50 in the assay with EKVX was > 100 µM (inactive); in the assay on HCC 2998 it was > 10 µM (inactive); with HL-60, 54.2 µM (inactive); in the assay on HOP-62 it was 79.3 µM (inactive); with HT-29 it was 25.8 µM (inactive); in the assay with KM12, 26.1 µM (inactive). Moreover, the GI50 was 35.2 µM (inactive) in the assay on MDA-MB-435; 20.7 µM (inactive) in the assay on MDA-N; 0.509 µM (active) in the assay with MOLT-4; > 100 µM (inactive) in the assay on OVCAR-4; 56 µM (inactive) in the assay with PC-3; 10.8 µM (inactive) in the assay on SK-MEL-5. In addition, the GI50 in the assay on SNB-19 was > 100 µM (inactive).
Consider `CC1OC2OC3C(OCC(O)C3O)OC(=O)[C@]34CCC(C)(C)CC3C3=CCC5[C@@]6(C)C[C@H](O)[C@H](OC7OC(CO)C(O)C(O)C7OC7OC(COC(=O)CC(C)(O)CC(=O)OC1C(OC1OC(CO)C(O)C(O)C1O)C2O)C(O)C(O)C7O)[C@@](C)(CO)C6CC[C@@]5(C)[C@]3(C)CC4` (some centres not stated), for which the GI50 was 0.14 µM (active) in the assay with A549; 2.72 µM (inactive) in the assay on ACHN; 1.42 µM (inactive) in the assay with HCC 2998; 1.44 µM (inactive) in the assay on HL-60; 1.46 µM (inactive) with HOP-62; 1.52 µM (inactive) in the assay on HT-29. The GI50 in the assay with KM12 is 2.37 µM (inactive); with M14, 2.51 µM (inactive); with MDA-MB-435 it was 1.91 µM (inactive); in the assay on MDA-N, 1.44 µM (inactive); in the assay with MOLT-4, 2.98 µM (inactive); in the assay on NCI-H460, 9.55 µM (inactive). Also, the GI50 was 2 µM (inactive) in the assay on NCI-H522; 5.16 µM (inactive) in the assay with OVCAR-4; 1.95 µM (inactive) in the assay with PC-3; 0.137 µM (active) in the assay on SK-MEL-5; 5.81 µM (inactive) with SNB-19; 1.64 µM (inactive) in the assay on UO-31.
Regarding `CCOC(=O)c1c(N)sc2c1C(C)(C(=O)OCC)CC2` (configuration not stated), the GI50 was 63.1 µM (inactive) in the assay on A549; > 100 µM (inactive) in the assay with ACHN; 38.6 µM (inactive) in the assay on EKVX; > 100 µM (inactive) with HCC 2998; 96.8 µM (inactive) in the assay with HL-60; > 100 µM (inactive) with HOP-62. The GI50 in the assay with HT-29 was > 100 µM (inactive); in the assay with KM12, > 100 µM (inactive); in the assay on M14, > 100 µM (inactive); in the assay on MCF7 it was > 100 µM (inactive); with MDA-N, > 100 µM (inactive); in the assay with MOLT-4, 74.5 µM (inactive). Moreover, the GI50 in the assay on NCI-H460 is 69.5 µM (inactive); in the assay on PC-3 it was > 100 µM (inactive); in the assay with SK-MEL-5 it was > 100 µM (inactive); with SNB-19, > 100 µM (inactive); with UO-31 it was 63.8 µM (inactive).
For `CC1(C)OCC(CO)(Nc2nc(N3CC3)nc(N3CC3)n2)CO1`, the GI50 in the assay on A549 was 4.05 µM (inactive); in the assay on ACHN it was 1.42 µM (inactive); in the assay on EKVX it was 32 µM (inactive); with HCC 2998 it was 16.9 µM (inactive); in the assay on HL-60, 0.69 µM (active); with HOP-62, 5.53 µM (inactive). The GI50 with HT-29 was 13.9 µM (inactive); in the assay with KM12, 16.3 µM (inactive); in the assay with M14, 9.2 µM (inactive); in the assay on MDA-MB-435 it was 19.5 µM (inactive); in the assay with MDA-N, 13.3 µM (inactive); with MOLT-4, 0.597 µM (active). Further, the GI50 was 0.38 µM (active) in the assay on NCI-H460; 13.2 µM (inactive) in the assay on NCI-H522; 18.8 µM (inactive) in the assay on OVCAR-4; 17.9 µM (inactive) with PC-3; 8.18 µM (inactive) with SK-MEL-5; 11.2 µM (inactive) in the assay on SNB-19. Further, in the assay with UO-31, the GI50 was 8.95 µM (inactive).
Regarding `N#Cc1c(Cl)cccc1Oc1ccc(S(=O)(=O)/N=C(\NN)Nc2ccc(Cl)cc2)cc1`, the GI50 is 31.9 µM (inactive) in the assay on A549; 31.9 µM (inactive) in the assay on ACHN; 23.3 µM (inactive) with EKVX; 21.5 µM (inactive) in the assay with HL-60; 21.1 µM (inactive) with HOP-62; 30.3 µM (inactive) with HT-29. Moreover, the GI50 was 19.5 µM (inactive) in the assay with KM12; 22.9 µM (inactive) with M14; 35.7 µM (inactive) in the assay with MCF7; 25.5 µM (inactive) in the assay with MDA-N; 14.6 µM (inactive) with MOLT-4; 19.2 µM (inactive) in the assay on NCI-H460. The GI50 with OVCAR-4 was 26.4 µM (inactive); in the assay on PC-3 it was 23.6 µM (inactive); in the assay with SK-MEL-5, 17.1 µM (inactive); with SNB-19, 41.1 µM (inactive); with UO-31, 25.5 µM (inactive).
As for `COc1cc2nn(-c3ccccc3)nc2c2nonc12`, the GI50 in the assay on A549, in the assay with ACHN, in the assay on EKVX, in the assay with HCC 2998, with HL-60 and in the assay with HOP-62 was > 100 µM (inactive) in each case. The GI50 in the assay with HT-29, in the assay on KM12, in the assay on M14, with MDA-MB-435, with MDA-N and with MOLT-4 was > 100 µM (inactive) each time. Further, the GI50 with NCI-H460 was > 100 µM (inactive); in the assay on NCI-H522 it was > 100 µM (inactive); in the assay on OVCAR-4, 95.9 µM (inactive); with PC-3, > 100 µM (inactive); in the assay with SK-MEL-5, > 100 µM (inactive); in the assay on SNB-19, > 100 µM (inactive). In the assay with UO-31, the GI50 was > 100 µM (inactive).
In the case of `N#CC(C#N)=CNC(=S)Nc1ccc(S(=O)(=O)Nc2nccs2)cc1`, the GI50 with A549, in the assay with ACHN, in the assay on EKVX, in the assay on HCC 2998, with HL-60 and in the assay on HOP-62 was > 100 µM (inactive) in each case. The GI50 in the assay with HT-29, with KM12, in the assay with M14, in the assay with MCF7, in the assay with MDA-MB-435 and in the assay with MDA-N was > 100 µM (inactive) in each case. Also, the GI50 with MOLT-4, in the assay on NCI-H460, with OVCAR-4, in the assay with SK-MEL-5, with SNB-19 and in the assay with UO-31 was > 100 µM (inactive) throughout.
Take `NN/C(=N\S(=O)(=O)c1cc(Cl)c(Oc2ccc([N+](=O)[O-])cc2Cl)c(Cl)c1)Nc1ccc(Cl)cc1`: the GI50 was 17.9 µM (inactive) in the assay with A549; 23.7 µM (inactive) in the assay with ACHN; 21.8 µM (inactive) in the assay on EKVX; 18.4 µM (inactive) with HOP-62; 19.1 µM (inactive) with HT-29; 18.8 µM (inactive) with KM12. For the same molecule, the GI50 is 17.4 µM (inactive) in the assay with M14; 22.6 µM (inactive) in the assay on MCF7; 17.8 µM (inactive) in the assay on MDA-N; 19.1 µM (inactive) with MOLT-4; 15.8 µM (inactive) with NCI-H460; 17.9 µM (inactive) in the assay on OVCAR-4. For the same molecule, the GI50 in the assay with PC-3 is 26.5 µM (inactive); in the assay on SK-MEL-5 it was 16 µM (inactive); in the assay with SNB-19, 23.8 µM (inactive); in the assay with UO-31, 17.6 µM (inactive).
Turning to `COc1cccc(-c2c(C#N)c(N)nc3c2CCS(=O)(=O)c2ccc(C)cc2-3)c1`, the GI50 in the assay with A549 is > 100 µM (inactive); in the assay on ACHN, > 100 µM (inactive); in the assay on HCC 2998, 78.2 µM (inactive); in the assay on HL-60, > 100 µM (inactive); in the assay on HOP-62, > 100 µM (inactive); in the assay on HT-29 it was > 100 µM (inactive). The GI50 with KM12, in the assay with M14, in the assay on MDA-MB-435, in the assay with MDA-N, with NCI-H460 and in the assay on NCI-H522 was > 100 µM (inactive) each time. Besides, the GI50 was 95.5 µM (inactive) in the assay with OVCAR-4; 89.1 µM (inactive) in the assay on PC-3; > 100 µM (inactive) in the assay with SK-MEL-5; 56.2 µM (inactive) in the assay with SNB-19; > 100 µM (inactive) in the assay on UO-31.
Turning to `Cc1cc2c(cc1Cl)SC(NNc1cnc3ccccc3n1)=NS2(=O)=O`, the GI50 with A549 was 78.9 µM (inactive); in the assay with ACHN, > 100 µM (inactive); in the assay with EKVX, > 100 µM (inactive); in the assay with HCC 2998, 67.9 µM (inactive); with HL-60 it was > 100 µM (inactive); in the assay with HOP-62, 41.7 µM (inactive). Moreover, the GI50 in the assay with HT-29 is > 100 µM (inactive); with KM12, 74.3 µM (inactive); in the assay with M14, 74.1 µM (inactive); in the assay on MDA-MB-435, > 100 µM (inactive); in the assay with MDA-N it was 90.2 µM (inactive); in the assay with MOLT-4 it was 26.6 µM (inactive). Besides, the GI50 in the assay on NCI-H460 was 33.8 µM (inactive); in the assay on NCI-H522 it was > 100 µM (inactive); in the assay with OVCAR-4 it was 56.8 µM (inactive); in the assay with PC-3, 35.4 µM (inactive); in the assay with SK-MEL-5, 66.7 µM (inactive); in the assay on SNB-19, 50.1 µM (inactive). Also, in the assay on UO-31, the GI50 was 30.4 µM (inactive).
As to `O=C(O)c1cccc(Nc2c(C(=O)O)cccc2[N+](=O)[O-])c1`, the GI50 with A549, in the assay on ACHN, in the assay with EKVX, in the assay with HCC 2998, in the assay on HL-60 and with HOP-62 was > 100 µM (inactive) throughout. Moreover, the GI50 in the assay on HT-29 was > 100 µM (inactive); with KM12 it was 57.4 µM (inactive); in the assay on M14, > 100 µM (inactive); in the assay on MCF7, > 100 µM (inactive); in the assay with MDA-N, > 100 µM (inactive); in the assay on MOLT-4 it was > 100 µM (inactive). Moreover, the GI50 with NCI-H460, in the assay with NCI-H522, in the assay with OVCAR-4, in the assay on PC-3, in the assay with SK-MEL-5 and with SNB-19 was > 100 µM (inactive) throughout. For the same molecule, the GI50 with UO-31 was > 100 µM (inactive).
